# Assay results reported in patent US8748464B2, “Use of SIRT1 activators or inhibitors to modulate an immune response” (The J. David Gladstone Institutes, priority 2008, dated 2014).
# What was measured:
# Jurkat T cells [1] = assay: Real-time RT-PCR of IL-2 mRNA in α-CD3/28-activated Jurkat T cells; type: cell-based, human
# Method: Viral supernatant containing 1500 ng of p24 was used to infect 18×10^6 JurkatT cells. Infections were carried out in 6-well plates at 2400 rpm in a Beckman-Coulter centrifuge for 2 h at 32° C. in the presence of polybrene (1 μg/ml, Sigma).
# Total RNA was extracted using RNA STAT-60 reagent (Tel-Test) according to the manufacturer's instruction. The first strand cDNA was generated using 2 μg of total RNA and SuperScript reverse transcriptase (Invitrogen). […] Relative gene expression ratios between stimulated and nonstimulated conditions were calculated by the equation, ratio=2^−ΔΔCt, comparative Ct method (Applied Biosystems).
# Infected cultures were activated for 2 h and 8 h with α-CD3/28 antibodies. (B) Real-time RT-PCR analysis of IL-2 mRNA levels in infected cultures 2 h after activation with α-CD3/28.
# SIRT1 [2] = target: T1, SIRT1 (Homo sapiens, UniProt Q96EB6); assay: In vitro deacetylation of acetylated recombinant p65 by recombinant SIRT1, western blot α-AcK310 p65; type: biochemical; parameters: purchased Biomol; settings: synthetic Tat 0.1 μg or nicotinamide 10 mM, preincubated 15 min; NAD 1 mM, 3 h, 37° C.
# T1 sequence (Q96EB6 1-747): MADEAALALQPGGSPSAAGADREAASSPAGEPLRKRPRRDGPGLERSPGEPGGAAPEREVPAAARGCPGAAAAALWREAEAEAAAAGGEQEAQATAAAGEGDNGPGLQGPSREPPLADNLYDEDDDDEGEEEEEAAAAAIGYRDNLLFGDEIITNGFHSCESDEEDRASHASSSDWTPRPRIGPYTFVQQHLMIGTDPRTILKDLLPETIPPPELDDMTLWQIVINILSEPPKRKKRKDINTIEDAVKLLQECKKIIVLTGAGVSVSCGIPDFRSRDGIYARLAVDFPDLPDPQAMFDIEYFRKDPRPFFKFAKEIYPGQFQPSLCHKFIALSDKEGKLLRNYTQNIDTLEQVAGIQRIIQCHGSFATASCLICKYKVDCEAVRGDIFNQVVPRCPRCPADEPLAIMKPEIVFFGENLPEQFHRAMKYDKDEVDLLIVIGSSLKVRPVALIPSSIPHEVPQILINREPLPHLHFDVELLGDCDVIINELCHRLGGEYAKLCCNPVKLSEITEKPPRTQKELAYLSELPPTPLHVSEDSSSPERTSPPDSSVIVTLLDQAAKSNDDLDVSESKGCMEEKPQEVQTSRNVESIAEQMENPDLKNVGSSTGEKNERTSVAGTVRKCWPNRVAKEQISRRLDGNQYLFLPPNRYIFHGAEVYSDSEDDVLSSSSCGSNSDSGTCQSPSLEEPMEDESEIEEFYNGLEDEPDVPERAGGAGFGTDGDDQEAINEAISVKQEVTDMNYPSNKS
# Method: Recombinant p65 protein prepared from baculovirus-infected Sf9 insect cells (BD Biosciences) was acetylated by immunoprecipitated p300 overexpressed in 293 cells as previously described (Chen et al., 2005). Acetylated p65 protein was incubated with recombinant SIRT1 (1 μg/5U; Biomol) in SIRT1 deacetylase buffer (50 mM Tris-HCl pH 9, 4 mM MgCl2, 0.2 mM DTT) in the presence of NAD (1 mM; Sigma) for 3 h at 37° C. […] Reactions were stopped by the addition of SDS loading buffer, boiled, and after brief centrifugation, analyzed by western blotting with rabbit a-AcK310 p65 (Chen et al., 2005) or mouse α-p65 antibodies (sc-8008, Santa Cruz).
# Next, we examined the effect of Tat on deacetylation of p65. In vitro acetylated recombinant p65 protein was incubated with recombinant SIRT1 and synthetic Tat proteins. The extent of deacetylation was determined by western blotting with antibody specific for acetylated K310 in p65 (α-AcK310 p65). […]
# FIGS. 5A-D. Tat inhibits the SIRT1 deacetylase activity (A) In vitro deacetylation assay of recombinant SIRT1 in the presence of synthetic Tat (aa 1-72). The rate of 1 μM SIRT1 was calculated for 200 μM fluorogenic deacetylase substrate (aa 379-382 of p53) in the presence of twelve concentrations of synthetic Tat. […] Total cell lysates were analyzed by western blotting with α-AcK310 p65 or α-T7 antibodies. […]
# [3] = system: FLAG-FoxP3 in 293 T cells; assay: Western blot of FLAG-FoxP3 (wild type or mutant) or FLAG-AML1/Runx1 expression in 293 T cells; type: cell-based; settings: 293 T cells
# Method: To determine whether the three newly identified acetylated lysine residues regulate FoxP3 stability, mutants were generated in which each of three lysine residues was substituted to arginines (KR), a conservative mutation that preserves the positive charge of the residue.
# To investigate the effect of SIRT1 inhibition and the three newly identified acetylation sites on FoxP3 protein stability, wild type and 3KR mutant FoxP3 protein expression was measured after treatment with cycloheximide (CHX), a general inhibitor of protein translation.
# (B) Scheme of acetylated lysine residues identified by mass spectrometry using immunoprecipitated FLAG-FoxP3 protein. The murine protein is shown.
# [4] = system: FLAG-FoxP3 in 293 T cells; assay: Immunoprecipitation/western blot of acetylated FLAG-FoxP3 or HA-AML1/Runx1 in 293 T cells cotransfected with p300; type: cell-based
# Description: FIGS. 10A-D. SIRT1 interacts with FoxP3 and inhibition of SIRT1 deacetylase activity increases acetylation of FoxP3. (A) Communoprecipitation/western blot analysis of FLAG-tagged FoxP3 and HA-tagged SIRT1 after transfection of corresponding expression vectors or empty vector controls into 293T cells. (B) Communoprecipitation assay of SIRT1 and FoxP3 deletion mutants. A schematic summary of the binding of FoxP3 mutants to SIRT1 is shown. The forkhead box (FH) indicates the DNA binding domain ZnF, zinc finger domain; LZ, leucine zipper. […] An expression vector for the p300 acetyltransferase was cotransfected with FoxP3. (D) The same experiment as in (C) using HA-AML1/Runx1. Immunoprecipitations were performed with either anti-FLAG antibody coupled to agarose (α-FLAG agarose) (C) or anti-hemagglutinin antibody coupled to agarose (α-HA agarose) (D) and western blotting with rabbit polyclonal antibody to acetyl-lysine (α-acetyl lysine) (α-AcK), α-FLAG or α-HA antibodies.
# Jurkat T cells [5] = assay: IL-2 protein ELISA in supernatant of α-CD3-stimulated Jurkat T cells infected with EF-1α-GFP or EF-1α-Tat-GFP viruses; type: cell-based, human; settings: 16 hrs
# Method: Lentiviral vectors, which contained the heterologous elongation factor 1α (EF-1α) promoter driving Tat and GFP expression, were generated. High titer viral stocks were produced and used to infect Jurkat T cells. […] Infected cultures were stimulated with antibodies specific for the CD3 receptor and treated with increased concentrations of resveratrol (0.4 μM, 2 μM, and 10 μM), a known SIRT1 activator for 16 hrs. IL-2 protein was measured in the culture supernatant by ELISA assay. Following stimulation with α-CD3 antibody, IL-2 protein was superinduced ˜4-fold by wild type Tat (FIG. 8A). In cells expressing Tat, ˜2300 pg/ml of IL-2 protein was detected in response to α-CD3 treatment, whereas in control cells, only ˜600 pg/ml of IL-2 protein was induced.
# The effects of small molecule of SIRT1 ([…]) on T cell hyperactivation in Tat-expressing cells were examined. Jurkat T cells were infected with EF-1α-GFP or EF-1α-Tat-GFP viruses (FIG. 8B). Infected cultures were stimulated with α-CD3 antibody and treated with SRT2183 (0.2, 1, and 5 μM) for 16 hrs.
# FIGS. 8A and 8B. Resveratrol and small molecule activator of SIRT1 (SRT2183) suppresses T cell hyperactivation by Tat. (A) IL-2 protein levels measured by ELISA in the supernatant of infected cultures. 24 hrs after infection with EF1α-GFP and EF1α-Tat-GFP viruses, Jurkat T cells were stimulated with α-CD3 antibody in the presence of increased concentrations of resveratrol (0.4, 2, and 10 μM) for 16 hrs. (B) 24 hrs after infection with EF1α-GFP and EF1α-Tat-GFP viruses, Jurkat T cells were stimulated with α-CD3 antibody in the presence of increased concentrations of SRT2183 (0.2, 1, and 5 μM) for 16 hrs. IL-2 protein levels were measured by ELISA in the supernatant of infected cultures.
# SIRT1 [6] = target: T1, SIRT1; settings: Howitz et al. 2003; Baur et al. 2006; cited from earlier work
SMILES,effect of combination with Tat on IL-2 expression (Jurkat T cells [1]),"IL-2 mRNA levels (Jurkat T cells [1]; noninfected Jurkat T cells, nicotinamide 10 mM 1 h before α-CD3/28)",deacetylation of p65 (K310) by SIRT1 (SIRT1 [2]),FoxP3 mRNA levels [3],"FoxP3 protein expression ([3]; nicotinamide 5 mM, Ex-527 50 μM or TSA 400 nM, 16 hours)",acetylation levels of FoxP3 [4],acetylation of AML1/Runx1 [4],ability of Tat to superinduce IL-2 production (Jurkat T cells [5]; 10 μM),"superinduction of IL-2 protein in Tat-expressing cells (Jurkat T cells [5]; 0.4, 2 and 10 μM)",activation of SIRT1 enzymatic activity (SIRT1 [6])
NC(=O)c1cccnc1 [nicotinamide],no additive effect,superinduced IL-2 mRNA to similar levels as Tat,same inhibition of p65 deacetylation,No effect,upregulation of protein expression,increased acetylation levels of FoxP3,increased to the same extent,–,–,–
Oc1ccc(/C=C/c2cc(O)cc(O)c2)cc1 [resveratrol],–,–,–,–,–,–,–,completely impaired,abolished by resveratrol in a concentration dependent manner,(weak) reversible activator
